Legend:
[1] = system: pancreatic lymphocyte of mouse; experiment: Lymphocyte mixed culture reaction (3H-thymidine uptake, DNA synthesis); type: cell-based, BALB/C mouse; conditions: concentration 1 ng/mL; cultured 3 days, 3H-TdR uptake 6 hours
Experimental: Experiment 1: Lymphocyte mixed culture reaction.
The pancreatic cells of BALB/C mouse were regulated to a concentration of 2×10^6 cells/ml with a culture medium of 10% FCS RPMI 1640, respectively. These cells (100 ul/well) and a sample (10 ul/well) were plated in a 96 well round-bottomed plate and cultured for 3 days under the condition of 37° C. and 5% CO2. Then, 3H-thymidine (3H-TdR) was added in a dose of 0.5 uCi/well. After 6 hours, the cells were harvested and subjected to the measurement of the uptake of 3H-TdR by a liquid scintillation counter. Thus, the DNA synthesis of pancreatic lymphocyte of mouse […].

B16 mouse melanoma cells = experiment: Tumor metastasis inhibitory activity against B16 mouse melanoma (lung nodules); type: in vivo, C57BL/6 mouse; conditions: p.o., lung surface nodules 14 days after B16 injection, vs control

In the case of `CCCCCCCCCCCCCCCCCCCCCCCCCC(=O)NC(CC[C@H]1OC(CO)[C@H](O)C(O)C1O)C(O)C(O)CCCCCCCCCCCCCC` (stereo partly drawn) [Compound 1, (3′S,4′S,5′R)-3′-N-Hexacosanoylamino-4′,5′-dihydroxy-nonadecane-α-C-D-galactopyranoside], the “Increase of DNA synthesis (%)” value [1] is reported as 54.6% and the “Inhibition of metastasis (%)” value (B16 mouse melanoma cells; dose 0.001 mg/kg) is reported as 65.3%.

For `CCCCCCCCCCCCCCCCCCCCCCCCCC(=O)NC(CS[C@H]1OC(CO)[C@H](O)C(O)C1O)C(O)C(O)CCCCCCCCCCCCCC` (stereo partly drawn) [Compound 8, (2′S,3′S,4′R)-3′,4′-Dihydroxy-2′-N-hexacosanoylamino-octadecane-1′-thio-yl-α-C-D-galactopyranoside], the “Increase of DNA synthesis (%)” value [1] was 35.4% and the “Inhibition of metastasis (%)” value (B16 mouse melanoma cells; dose 1 mg/kg) was 80.8%.

Reference: patent US6635622B2, “Glycolipid derivative” (Kotobuki Pharmaceutical Co., Ltd., priority 2000, dated 2003)
